BindingDB's records for doi:10.1016/j.bmcl.2004.04.105 (Institut Henri Beaufour, 2004)

Assays:
[1] = Inhibitory activity against on calpain in C6 glial cells
[2] = Inhibitory activity against on calpain 1 in C6 glial cells

| IC50 [1] | IC50 [2] | SMILES |
| --- | --- | --- |
| 23.5 µM |  | CC(C)C[C@H](NC(=O)c1ccc2c(c1)Nc1ccccc1S2)C(=O)N[C@H]1CCOC1O (some centres not stated) |
|  | 13.3 µM | CC(=O)OC1OCC[C@@H]1NC(=O)[C@H](CC(C)C)NC(=O)c1ccc2c(c1)Nc1ccccc1S2 (some centres not stated) |
